These results are taken from patent US20100119483A1, “PEPTIDE VIRAL ENTRY INHIBITORS” (Schering Corporation, priority 2004, published 2010).

Where “and” joins values, the source holds several entries; their conditions need not be identical. Equal entries are not always repeated.

The subject of assay [1] is HCV pseudoparticles. The experiment in a line: HCV pseudoparticle (HCVpp) entry assay in Huh7 hepatoma cells, luciferase readout. Format: cell-based, hepatitis C virus. The following applies: for luciferase units, HCV entry: duplicates; for % of control at ~30 uM: percentage of hepatitis C virus cellular entry at 30 μM peptide vs uninhibited control; for HCVpp % inh: peptide library screen, first screened at 100 ug/ml, cell entry inhibition vs uninhibited control. Summed up: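 Huh7 cells were pre-treated with peptide for 1 h at 37 °C before exposure to HCV E1/E2-pseudotyped HIV luciferase particles made in 293T cells, followed by 72 h culture and luciferase readout. Peptides were tested at 10 points, 3-fold, from 100 ug/ml; particles lacking envelope served as non-specific entry control.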

Assay [2] relates to amphotropic murine leukemia virus. The experiment in a line: AMLV pseudotyped virus entry counter-screen, same infection protocol. Format: cell-based. As to conditions: for luciferase units, AMLV entry: duplicates; for AMLVpp % inh: peptide library screen, cell entry inhibition vs uninhibited control. Here is the method: Infection of hepatoma cell lines with HCV pseudotype particles and screen for inhibitory peptides. The hepatoma cells, Huh7, was seeded at 8000 cells in 90 ul medium in 96-well plate. In the case of the inhibitor screen, the inhibitor was incubated with cells for one hour at 37° C. and then 50 ul viral supernatant was added to the cells 24 hours after seeding. The viral stock was pre-tittered and diluted to yield approximately 10,000 to 20,000 RLU. The cells were incubated at 37° C. with 5% CO2 for additional 72 hours and were harvested for luciferase assay. Peptide stocks were prepared in 100% DMSO at 10 mg/ml and were first screened at 100 ug/ml and then a dose responsive curve was generated with 10 points 3-fold titration starting from 100 ug/ml.
The specificity of the peptides were counter-screened with AMLV and HIV pseudotyped viruses using the same infection protocol.

Setting [3] is: 0.1 nM of peptide (printed for three rows), two values per peptide and row.
[4] abbreviates: 0.3 nM of peptide, two values per peptide.
The mark [5] stands for this setting: 1 nM of peptide, two values per peptide.
[6] abbreviates: 3 nM of peptide, two values per peptide.
The mark [7] stands for this setting: 10 nM of peptide, two values per peptide.
[8] abbreviates: 30 nM of peptide, two values per peptide.
Where [9] appears, read: 100 nM of peptide, two values per peptide.
Where [10] appears, read: 300 nM of peptide, two values per peptide.
Setting [11] is: 10000 nM of peptide, two values per peptide.
Where [12] appears, read: 30000 nM of peptide, two values per peptide.
Setting [13] is: 0.01371742 uM of peptide (three lines).

As to “A-I-K-W-E-Y-V-L-L-L-F-L-L [SEQ ID NO: 85]”, the “% control (HCVpp entry), alanine scanning” value (“% control … alanine scanning” for short) in assay [1] (setting [3]) is 79 % control and 81 % control and 101 % control and 74 % control and 113 % control and 112 % control; in assay [1] (setting [4]), 79 % control and 96 % control; in assay [1] (setting [5]), 95 % control and 83 % control; in assay [1] (setting [6]) it was 71 % control and 88 % control; in assay [1] (setting [7]) it was 90 % control and 107 % control; in assay [1] (setting [8]), 62 % control and 57 % control. Moreover, the “% control … alanine scanning” value in assay [1] (setting [9]) was 45 % control and 50 % control; in assay [1] (setting [10]), 18 % control and 22 % control; in assay [1] (setting [11]), 13 % control and 18 % control; in assay [1] (setting [12]) it was 70 % control and 103 % control. The “luciferase units, HCV entry” value in assay [1] (0.04115226 uM of peptide) is 7203 luciferase units and 6444 luciferase units; in assay [1] (0.3703704 uM of peptide), 3658 luciferase units and 3430 luciferase units; in assay [1] (1.111111 uM of peptide), 4380 luciferase units and 2918 luciferase units; in assay [1] (3.333333 uM of peptide), 2239 luciferase units and 2490 luciferase units; in assay [1] (10 uM of peptide) it was 3393 luciferase units and 2865 luciferase units. Moreover, the “% of control at ~30 uM” value in assay [1] was found to be 20%. In addition, the “luciferase units, AMLV entry” value in assay [2] (setting [13]) is 55532 luciferase units and 43767 luciferase units and 32138 luciferase units and 44812 luciferase units and 41172 luciferase units and 40068 luciferase units; in assay [2] (0.04115226 uM of peptide), 32390 luciferase units and 42604 luciferase units; in assay [2] (0.1234568 uM of peptide) it was 41483 luciferase units and 44739 luciferase units; in assay [2] (0.3703704 uM of peptide), 44659 luciferase units and 43073 luciferase units; in assay [2] (1.111111 uM of peptide), 42996 luciferase units and 48628 luciferase units; in assay [2] (3.333333 uM of peptide), 92146 luciferase units and 118949 luciferase units. Besides, the “luciferase units, AMLV entry” value in assay [2] (10 uM of peptide) is 129890 luciferase units and 172763 luciferase units; in assay [2] (30 uM of peptide), 72040 luciferase units and 83257 luciferase units.
In the case of “A-I-K-W-E-Y-V-L-L-L-F-L-L [SEQ ID NO: 86]”, the “% control … alanine scanning” value in assay [1] (setting [3]) is 86 % control and 90 % control and 87 % control and 103 % control and 108 % control; in assay [1] (setting [4]), 96 % control and 133 % control; in assay [1] (setting [5]), 80 % control and 102 % control; in assay [1] (setting [6]), 90 % control and 118 % control; in assay [1] (setting [7]), 69 % control and 67 % control; in assay [1] (setting [8]), 59 % control and 60 % control. For the same substance, the “% control … alanine scanning” value in assay [1] (setting [9]) was 48 % control and 33 % control; in assay [1] (setting [10]), 25 % control and 30 % control; in assay [1] (setting [11]) it was 27 % control and 25 % control; in assay [1] (setting [12]) it was 15 % control and 27 % control. Besides, the “luciferase units, HCV entry” value is 10981 luciferase units and 12701 luciferase units and 17159 luciferase units and 18427 luciferase units and 19121 luciferase units and 16287 luciferase units in assay [1] (setting [13]); 8349 luciferase units and 8612 luciferase units in assay [1] (0.04115226 uM of peptide); 6445 luciferase units and 3869 luciferase units in assay [1] (0.1234568 uM of peptide); 5748 luciferase units and 3127 luciferase units in assay [1] (0.3703704 uM of peptide); 3652 luciferase units and 3574 luciferase units in assay [1] (1.111111 uM of peptide); 2746 luciferase units and 2356 luciferase units in assay [1] (3.333333 uM of peptide). Also, the “luciferase units, HCV entry” value in assay [1] (30 uM of peptide) is 1899 luciferase units and 1645 luciferase units. Further, in assay [1], the “% of control at ~30 uM” value is 13%. Further, the “luciferase units, AMLV entry” value in assay [2] (setting [13]) is 42295 luciferase units and 44556 luciferase units and 43059 luciferase units and 48854 luciferase units and 37783 luciferase units and 49462 luciferase units; in assay [2] (0.04115226 uM of peptide), 42084 luciferase units and 47952 luciferase units; in assay [2] (0.1234568 uM of peptide) it was 37163 luciferase units and 47412 luciferase units; in assay [2] (0.3703704 uM of peptide) it was 43543 luciferase units and 47987 luciferase units; in assay [2] (1.111111 uM of peptide), 40296 luciferase units and 43593 luciferase units; in assay [2] (3.333333 uM of peptide), 53350 luciferase units and 39047 luciferase units. In addition, the “luciferase units, AMLV entry” value in assay [2] (10 uM of peptide) was 70573 luciferase units and 72462 luciferase units; in assay [2] (30 uM of peptide), 76174 luciferase units and 71333 luciferase units.
With “A-I-K-W-E-Y-V-L-L-L-F-L-L [SEQ ID NO: 100]”, the “% control (HCVpp entry), lysine scanning” value in assay [1] (setting [3]) is 110 % control and 85 % control and 115 % control and 83 % control and 92 % control and 111 % control; in assay [1] (setting [4]) it was 88 % control and 75 % control; in assay [1] (setting [5]), 76 % control and 68 % control; in assay [1] (setting [6]) it was 61 % control and 83 % control; in assay [1] (setting [7]), 62 % control and 58 % control; in assay [1] (setting [8]), 53 % control and 44 % control. The “% control (HCVpp entry), lysine scanning” value is 31 % control and 19 % control in assay [1] (setting [9]); 32 % control and 29 % control in assay [1] (setting [10]). For the same substance, the “luciferase units, HCV entry” value is 9526 luciferase units and 11368 luciferase units and 13637 luciferase units and 13231 luciferase units and 14358 luciferase units and 15831 luciferase units in assay [1] (setting [13]); 7066 luciferase units and 7585 luciferase units in assay [1] (0.04115226 uM of peptide); 4241 luciferase units and 3590 luciferase units in assay [1] (0.1234568 uM of peptide); 4161 luciferase units and 2767 luciferase units in assay [1] (0.3703704 uM of peptide); 3041 luciferase units and 2870 luciferase units in assay [1] (1.111111 uM of peptide); 4131 luciferase units and 3158 luciferase units in assay [1] (3.333333 uM of peptide). Also, the “luciferase units, HCV entry” value is 1538 luciferase units and 1360 luciferase units in assay [1] (10 uM of peptide); 1262 luciferase units and 1073 luciferase units in assay [1] (30 uM of peptide). The “% of control at ~30 uM” value in assay [1] worked out at 6%. Also, the “luciferase units, AMLV entry” value in assay [2] (0.04115226 uM of peptide) is 39784 luciferase units and 45324 luciferase units; in assay [2] (0.1234568 uM of peptide), 46954 luciferase units and 44234 luciferase units; in assay [2] (0.3703704 uM of peptide), 42008 luciferase units and 39907 luciferase units; in assay [2] (1.111111 uM of peptide), 45723 luciferase units and 43633 luciferase units; in assay [2] (3.333333 uM of peptide) it was 70934 luciferase units and 59407 luciferase units; in assay [2] (10 uM of peptide) it was 135633 luciferase units and 74847 luciferase units. In addition, the “luciferase units, AMLV entry” value in assay [2] (30 uM of peptide) was 76883 luciferase units and 56072 luciferase units.
Consider “A-L-T-P-T-L-A-A-R-N-A-S-V-P-T-T [SEQ ID NO: 10]”, for which the HCVpp % inh in assay [1] came out at 53%. Besides, the AMLVpp % inh in assay [2] is 1%.
In the same order, the values of “A-Q-V-C-G-P-V-Y-C-F-T-P-S-P-V-V [SEQ ID NO: 47]” are 40% and −8%.
In the same order, the values of “A-R-N-A-S-V-P-T-T-T-I-R-R-H-V-D [SEQ ID NO: 11]” are −26% and 24%.
The corresponding values for “A-Y-Y-S-W-V-G-N-W-A-K-V-L-I-V-M [SEQ ID NO: 27]” are 39% and −2%.
On to “C-N-C-S-I-Y-P-G-H-V-T-G-H-R-M-A [SEQ ID NO: 19]”, for which the HCVpp % inh in assay [1] is 49%. In addition, the AMLVpp % inh in assay [2] turned out to be 26%.
The corresponding values for “C-W-H-Y-A-P-R-P-C-G-I-V-P-A-A-Q [SEQ ID NO: 45]” are 63% and −8%.
The corresponding values for “D-C-F-R-K-H-P-E-A-T-Y-T-K-C-G-S [SEQ ID NO: 59]” are 26% and −14%.
In the same order, the values of “D-C-S-N-A-S-I-V-Y-E-A-A-D-M-I-M [SEQ ID NO: 5]” are −4% and −2%.
Take “D-M-V-A-G-A-H-W-G-V-L-A-G-L-A-Y [SEQ ID NO: 25]”: the HCVpp % inh in assay [1] turned out to be 27%. Besides, the AMLVpp % inh in assay [2] is reported as 14%.
In the same order, the values of “D-V-L-L-L-N-N-T-R-P-P-Q-G-N-W-F [SEQ ID NO: 52]” are 10% and 16%.
The corresponding values for “E-A-T-Y-T-K-C-G-S-G-P-W-L-T-P-R (EATYTKCGSGPWLTPR; HCV peptide) [SEQ ID NO: 60]” are 13% and 17%.
In the same order, the values of “E-L-S-P-L-L-L-S-T-T-E-W-Q-V-L-P [SEQ ID NO: 70]” are 10% and 44%.
